Test [1] relates to 24-hydroxylase (24Ohase) gene promoter in ROS 17/2.8 (bone) cells. Put plainly: In vitro transcription assay (luciferase reporter). Conditions: FIG. 3; for EC50: ROS 17/2.8 cells, 24Ohase promoter-luciferase, 16 h, read-out: EC50, transcriptional activity in bone cells. It counts as cell-based. The protocol: Transcription activity was measured in ROS 17/2.8 (bone) cells that were stably transfected with a 24-hydroxylase (24Ohase) gene promoter upstream of a luciferase reporter gene (Arbour et al., 1998). Cells were given a range of doses. Sixteen hours after dosing the cells were harvested and luciferase activities were measured using a luminometer.
RLU=relative luciferase units.
Background: A reporter such as luciferase makes a cellular process visible.

In test [2] the test system is Human promyelocytic leukemia (HL60) cells. In words: HL-60 differentiation (nitro blue tetrazolium reduction). In kind it is cell-based. The conditions noted are these: FIG. 2; for EC50: HL-60 cells, four days after treatment, read-out: EC50, HL-60 cell differentiation. The protocol:
The study drugs were dissolved in ethanol and the concentrations determined using UV spectrophotometry. Serial dilutions were prepared so that a range of drug concentrations could be tested without changing the final concentration of ethanol (≦0.2%) present in the cell cultures.
Human promyelocytic leukemia (HL60) cells were grown in RPMI-1640 medium containing 10% fetal bovine serum. The cells were incubated at 37° C. in the presence of 5% CO2.
HL60 cells were plated at 1.2×10^5 cells/ml. Eighteen hours after plating, cells in duplicate were treated with drug. Four days later, the cells were harvested and a nitro blue tetrazolium reduction assay was performed (Collins et al., 1979; J. Exp. Med. 149:969-974). The percentage of differentiated cells was determined by counting a total of 200 cells and recording the number that contained intracellular black-blue formazan deposits. Verification of differentiation to monocytic cells was determined by measuring phagocytic activity (data not shown).

Test [3] deals with vitamin D-deficient rats. Put plainly: Intestinal calcium transport (everted gut sac method). It counts as in vivo, rat. The conditions noted are these: FIG. 5; for intestinal calcium transport: everted gut sac. The protocol: (§1) Male, weanling Sprague-Dawley rats were placed on Diet 11 (0.47% Ca) diet+AEK for one week followed by Diet 11 (0.02% Ca)+AEK for 3 weeks. The rats were then switched to a diet containing 0.47% Ca for one week followed by two weeks on a diet containing 0.02% Ca. Dose administration began during the last week on 0.02% calcium diet. Four consecutive ip doses were given approximately 24 hours apart. Twenty-four hours after the last dose, blood was collected from the severed neck and the concentration of serum calcium determined as a measure of bone calcium mobilization. The first 10 cm of the intestine was also collected for intestinal calcium transport analysis using the everted gut sac method.

Test [4] deals with T1, full-length recombinant rat vitamin D receptor (Rattus norvegicus, UniProt P13053).
T1 construct: Full-length recombinant rat receptor was expressed in E. coli; histidine tag (C); made in house; host or cells: E. coli BL21 (DE3) Codon Plus RIL
T1 sequence (P13053 1-423): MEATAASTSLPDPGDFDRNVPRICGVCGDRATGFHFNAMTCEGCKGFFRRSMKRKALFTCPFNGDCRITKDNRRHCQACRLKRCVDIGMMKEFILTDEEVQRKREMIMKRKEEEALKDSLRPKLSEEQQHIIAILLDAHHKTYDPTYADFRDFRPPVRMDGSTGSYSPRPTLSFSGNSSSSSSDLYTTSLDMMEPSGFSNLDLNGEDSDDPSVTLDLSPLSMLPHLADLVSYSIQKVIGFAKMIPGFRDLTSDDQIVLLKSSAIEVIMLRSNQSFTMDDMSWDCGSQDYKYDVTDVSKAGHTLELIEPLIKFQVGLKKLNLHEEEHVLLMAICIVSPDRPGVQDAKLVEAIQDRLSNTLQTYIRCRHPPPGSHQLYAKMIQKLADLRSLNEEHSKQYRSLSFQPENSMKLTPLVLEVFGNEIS
Put plainly: Vitamin D receptor binding, competition with [3H]-1,25(OH)2D3. Conditions: FIG. 1. The protocol:
Full-length recombinant rat receptor was expressed in E. coli BL21 (DE3) Codon Plus RIL cells and purified to homogeneity using two different column chromatography systems. The first system was a nickel affinity resin that utilizes the C-terminal histidine tag on this protein. The protein that was eluted from this resin was further purified using ion exchange chromatography (S-Sepharose Fast Flow). Aliquots of the purified protein were quick frozen in liquid nitrogen and stored at −80° C. until use. For use in binding assays, the protein was diluted in TEDK50 (50 mM Tris, 1.5 mM EDTA, pH7.4, 5 mM DTT, 150 mM KCl) with 0.1% Chaps detergent. The receptor protein and ligand concentration were optimized such that no more than 20% of the added radiolabeled ligand was bound to the receptor.
Radiolabeled and unlabeled ligands were added to 100 mcl of the diluted protein at a final ethanol concentration of ≦10%, mixed and incubated overnight on ice to reach binding equilibrium. The following day, 100 mcl of hydroxylapatite slurry (50%) was added to each tube and mixed at 10-minute intervals for 30 minutes. The hydroxylapaptite was collected by centrifugation and then washed three times with Tris-EDTA buffer (50 mM Tris, 1.5 mM EDTA, pH 7.4) containing 0.5% Titron X-100. […] Total binding was determined from the tubes containing only radiolabeled ligand.

Test [5] has as its system vitamin D-deficient rats. In words: Bone calcium mobilization (serum calcium). In kind it is in vivo, rat. The conditions noted are these: FIG. 4. The protocol: as §1

Where two headings read alike, the source gives them in different places.

For `C=C1[C@H](O)CC(=C/C=C2\CCC[C@]3(C)[C@@H]([C@H](C)/C=C/C[C@H](C)O)CC[C@@H]23)C[C@H]1O` [REN, 2-methylene-(20R,25S)-19,27-dinor-(22E)-1α,25-dihydroxyvitamin D3], the EC50 – broadly, the concentration that produces a half-maximal response – in test [1] amounted to 0.1 nM; in test [2] (Homo sapiens, 96 h) it was 1 nM. Further, in test [1] (in words), the “transcriptional activity in bone cells compared to 1α,25-dihydroxyvitamin D3” value is on record as “about the same transcriptional activity”. The “potency on HL-60 cell differentiation compared to 1,25(OH)2D3” value in test [2] (in words) is reported as “as potent as 1,25(OH)2D3”. Further, the intestinal calcium transport entry in the test with vitamin D-deficient rats [3] (260 pmol/day) is “promotes intestinal calcium transport only slightly”; with vitamin D-deficient rats [3] (7020 pmol/day), “significant intestinal calcium transport activity”. Moreover, the “intestinal calcium transport activity compared to 1,25(OH)2D3” value with vitamin D-deficient rats [3] (in words) is on record as “very little activity”. Besides, the Ki (usually a measure of affinity in units of concentration, obtained from inhibition or displacement) in test [4] (full-length recombinant rat VDR) was found to be 0.4 nM. Also, the “binding to the receptor compared to 1,25-(OH)2D3” value in test [4] (in words) is given as “bound equally to the receptor”. For the same compound, the “bone calcium mobilization (serum calcium)” value with vitamin D-deficient rats [5] (260 pmol/day ip for 4 consecutive days, rats on low calcium diet (0.02%)) is on record as “did not result in mobilization of bone calcium”; with vitamin D-deficient rats [5] (7020 pmol/day, rats on low calcium diet (0.02%)), “without any substantial effect”. Also, the “bone calcium mobilization activity compared to 1,25(OH)2D3” value in the test with vitamin D-deficient rats [5] (in words) was “very little bone calcium mobilization activity”.

`C=C1/C(=C\C=C2/CCC[C@]3(C)[C@@H]([C@H](C)CCCC(C)(C)O)CC[C@@H]23)C[C@@H](O)C[C@@H]1O` [1,25(OH)2D3, 1α,25-dihydroxyvitamin D3, reference compound]: the EC50 amounted to 0.2 nM in test [1] and 2 nM in test [2]. The intestinal calcium transport entry with vitamin D-deficient rats [3] (260 pmol/day) was “promotes a significant increase”. In addition, the serum calcium levels result in the test with vitamin D-deficient rats [5] (all dosages, rats on low calcium diet (0.02%)) is given as “increased serum calcium levels at all dosages”.

For the origin of these results see patent publication US7741314B2, “2-Methylene-(20R,25S)-19,27-Dinor-(22E)-Vitamin D Analogs” (Wisconsin Alumni Research Foundation, priority 2006, dated 2010).
